Test results as given in US10405547B2, “Substituted cyclic amides as herbicides” (FMC Corporation, priority 2015, dated 2019).

How the values were obtained:
Format in all cases: in vivo
corn (Zea mays) = assay: Test A postemergence, corn; details: visual injury, 0 to 100 scale (0 no effect, 100 complete control), approximately 10 days
From the text: (§1) Test A Seeds of plant species selected from barnyardgrass (Echinochloa crus-galli), kochia (Kochia scoparia), ragweed (common ragweed, Ambrosia elatior), ryegrass, Italian (Lolium multiflorum), foxtail, giant (Setaria faberii), and pigweed (Amaranthus retroflexus), were planted into a blend of loam soil and sand and treated preemergence with a directed soil spray using test chemicals formulated in a non-phytotoxic solvent mixture which included a surfactant.
(§2) At the same time, plants selected from these weed species and also blackgrass (Alopecurus myosuroides), galium (catchweed bedstraw, Galium aparine), wheat (Triticum aestivum), and corn (Zea mays) were planted in pots containing the same blend of loam soil and sand and treated with postemergence applications of test chemicals formulated in the same manner. Plants ranged in height from 2 to 10 cm and were in the one- to two-leaf stage for the postemergence treatment. Treated plants and untreated controls were maintained in a greenhouse for approximately 10 days, after which time all treated plants were compared to untreated controls and visually evaluated for injury. Plant response ratings, summarized in Table A, are based on a 0 to 100 scale where 0 is no effect and 100 is complete control. A dash (-) response means no test result.

[1] = tested on: wheat (Triticum aestivum); assay: Test A postemergence, wheat; details: visual injury, 0 to 100 scale (0 no effect, 100 complete control), approximately 10 days
From the text: as §1, §2

[2] = tested on: foxtail, giant (Setaria faberii); assay: Test A postemergence, giant foxtail; details: visual injury, 0 to 100 scale (0 no effect, 100 complete control), approximately 10 days
From the text: as §1, §2

[3] = tested on: foxtail, giant (Setaria faberii); assay: Test A preemergence, giant foxtail; details: 0 to 100 scale (0 no effect, 100 complete control)
From the text: as §1, §2

[4] = tested on: pigweed (Amaranthus retroflexus); assay: Test A preemergence, pigweed; details: 0 to 100 scale (0 no effect, 100 complete control)
From the text: as §1, §2

[5] = tested on: ryegrass, Italian (Lolium multiflorum); assay: Test A preemergence, Italian ryegrass; details: 0 to 100 scale (0 no effect, 100 complete control)
From the text: as §1, §2

[6] = tested on: ryegrass, Italian (Lolium multiflorum); assay: Test A postemergence, Italian ryegrass; details: visual injury, 0 to 100 scale (0 no effect, 100 complete control), approximately 10 days
From the text: as §1, §2

[7] = tested on: blackgrass (Alopecurus myosuroides); assay: Test A postemergence, blackgrass; details: visual injury, 0 to 100 scale (0 no effect, 100 complete control), approximately 10 days
From the text: as §1, §2

[8] = tested on: barnyardgrass (Echinochloa crus-galli); assay: Test A postemergence, barnyardgrass; details: visual injury, 0 to 100 scale (0 no effect, 100 complete control), approximately 10 days
From the text: as §1, §2

[9] = tested on: galium (catchweed bedstraw, Galium aparine); assay: Test A postemergence, galium; details: visual injury, 0 to 100 scale (0 no effect, 100 complete control), approximately 10 days
From the text: as §1, §2

[10] = tested on: ragweed (common ragweed, Ambrosia elatior); assay: Test A postemergence, ragweed; details: visual injury, 0 to 100 scale (0 no effect, 100 complete control), approximately 10 days
From the text: as §1, §2

[11] = tested on: barnyardgrass (Echinochloa crus-galli); assay: Test A preemergence, barnyardgrass; details: 0 to 100 scale (0 no effect, 100 complete control)
From the text: as §1, §2

[12] = tested on: ragweed (common ragweed, Ambrosia elatior); assay: Test A preemergence, ragweed; details: 0 to 100 scale (0 no effect, 100 complete control)
From the text: as §1, §2

kochia (Kochia scoparia) [13] = assay: Test A preemergence, kochia; details: 0 to 100 scale (0 no effect, 100 complete control)
From the text: as §1, §2

kochia (Kochia scoparia) [14] = assay: Test A postemergence, kochia; details: visual injury, 0 to 100 scale (0 no effect, 100 complete control), approximately 10 days
From the text: as §1, §2

[15] = tested on: pigweed (Amaranthus retroflexus); assay: Test A postemergence, pigweed; details: visual injury, 0 to 100 scale (0 no effect, 100 complete control), approximately 10 days
From the text: as §1, §2

| Structure (SMILES) | Plant response rating, Corn (corn (Zea mays); 125 g ai/ha) | Plant response rating, Corn (corn (Zea mays); 500 g ai/ha) | Plant response rating, Wheat ([1]; 125 g ai/ha) | Plant response rating, Wheat ([1]; 500 g ai/ha) | Plant response rating, Foxtail, Giant ([2]; 125 g ai/ha) | Plant response rating, Foxtail, Giant ([2]; 500 g ai/ha) | Plant response rating, Foxtail, Giant ([3]; 125 g ai/ha) | Plant response rating, Foxtail, Giant ([3]; 500 g ai/ha) | Plant response rating, Pigweed ([4]; 125 g ai/ha) | Plant response rating, Pigweed ([4]; 500 g ai/ha) | Plant response rating, Ryegrass, Italian ([5]; 125 g ai/ha) | Plant response rating, Ryegrass, Italian ([5]; 500 g ai/ha) | Plant response rating, Ryegrass, Italian ([6]; 125 g ai/ha) | Plant response rating, Ryegrass, Italian ([6]; 500 g ai/ha) | Plant response rating, Blackgrass ([7]; 125 g ai/ha) | Plant response rating, Blackgrass ([7]; 500 g ai/ha) | Plant response rating, Barnyardgrass ([8]; 125 g ai/ha) | Plant response rating, Barnyardgrass ([8]; 500 g ai/ha) | Plant response rating, Galium ([9]; 125 g ai/ha) | Plant response rating, Galium ([9]; 500 g ai/ha) | also measured |
| --- | --- | --- | --- | --- | --- | --- | --- | --- | --- | --- | --- | --- | --- | --- | --- | --- | --- | --- | --- | --- | --- |
| O=C1NCC(c2cccc(COc3ccccc3)c2)C1C(=O)Nc1ccc(F)c(F)c1F (stereo not drawn) [Compound 17] | 0 | 0 | 0 | 0 | 30 | 40 | 50 | 80 | 0 | 0 | 0 | 0 | 0 | 0 | 0 | 0 | 30 | 40 | 50 | 30 | Plant response rating, Ragweed ([10]; 125 g ai/ha): 0; Plant response rating, Ragweed ([10]; 500 g ai/ha): 0; Plant response rating, Barnyardgrass ([11]; 125 g ai/ha): 20; Plant response rating, Barnyardgrass ([11]; 500 g ai/ha): 70; Plant response rating, Ragweed ([12]; 125 g ai/ha): 0; Plant response rating, Ragweed ([12]; 500 g ai/ha): 0; Plant response rating, Kochia (kochia (Kochia scoparia) [13]; 125 g ai/ha): 0; Plant response rating, Kochia (kochia (Kochia scoparia) [13]; 500 g ai/ha): 30; Plant response rating, Kochia (kochia (Kochia scoparia) [14]; 125 g ai/ha): 0; Plant response rating, Kochia (kochia (Kochia scoparia) [14]; 500 g ai/ha): 0; Plant response rating, Pigweed ([15]; 125 g ai/ha): 0; Plant response rating, Pigweed ([15]; 500 g ai/ha): 0 |
| O=C1NCC(c2cccc(COc3ccccc3)c2)C1C(=O)Nc1ccccc1Cl (stereo not drawn) [Compound 18] | 0 | 0 | 0 | 0 | 0 | 0 | 0 | 20 | 0 | 0 | 0 | 0 | 0 | 0 | 0 | 0 | 0 | 20 | 0 | 0 | Plant response rating, Ragweed ([10]; 125 g ai/ha): 0; Plant response rating, Ragweed ([10]; 500 g ai/ha): 0; Plant response rating, Barnyardgrass ([11]; 125 g ai/ha): 0; Plant response rating, Barnyardgrass ([11]; 500 g ai/ha): 0; Plant response rating, Ragweed ([12]; 125 g ai/ha): 0; Plant response rating, Ragweed ([12]; 500 g ai/ha): 0; Plant response rating, Kochia (kochia (Kochia scoparia) [13]; 125 g ai/ha): 0; Plant response rating, Kochia (kochia (Kochia scoparia) [13]; 500 g ai/ha): 0; Plant response rating, Kochia (kochia (Kochia scoparia) [14]; 125 g ai/ha): 0; Plant response rating, Kochia (kochia (Kochia scoparia) [14]; 500 g ai/ha): 0; Plant response rating, Pigweed ([15]; 125 g ai/ha): 0; Plant response rating, Pigweed ([15]; 500 g ai/ha): 0 |
| O=C1NCC(c2cccc(COc3ccccc3)c2)C1C(=O)Nc1ccccc1F (stereo not drawn) [Compound 19] | 0 | 0 | 0 | 0 | 20 | 40 | 30 | 80 | 0 | 0 | 0 | 0 | 0 | 0 | 0 | 0 | 20 | 50 | 0 | 0 | Plant response rating, Ragweed ([10]; 125 g ai/ha): 0; Plant response rating, Ragweed ([10]; 500 g ai/ha): 0; Plant response rating, Barnyardgrass ([11]; 125 g ai/ha): 30; Plant response rating, Barnyardgrass ([11]; 500 g ai/ha): 70; Plant response rating, Ragweed ([12]; 125 g ai/ha): 0; Plant response rating, Ragweed ([12]; 500 g ai/ha): 0; Plant response rating, Kochia (kochia (Kochia scoparia) [13]; 125 g ai/ha): 0; Plant response rating, Kochia (kochia (Kochia scoparia) [13]; 500 g ai/ha): 40; Plant response rating, Kochia (kochia (Kochia scoparia) [14]; 125 g ai/ha): 0; Plant response rating, Kochia (kochia (Kochia scoparia) [14]; 500 g ai/ha): 0; Plant response rating, Pigweed ([15]; 125 g ai/ha): 0; Plant response rating, Pigweed ([15]; 500 g ai/ha): 0 |
